Read-outs that look alike come from different tables or passages of the source.
Legend:
[1] = biological target: T1, RORγ ligand-binding domain fused to Gal4 (Homo sapiens, UniProt P51449); assay: RORγ Reporter Assay (Gal4); assay type: cell-based
T1 construct: Gal4 (galactose-responsive transcription factor); expressed in transfected cells; host or cells: HEK293
T1 sequence (P51449 269-508 limits assumed): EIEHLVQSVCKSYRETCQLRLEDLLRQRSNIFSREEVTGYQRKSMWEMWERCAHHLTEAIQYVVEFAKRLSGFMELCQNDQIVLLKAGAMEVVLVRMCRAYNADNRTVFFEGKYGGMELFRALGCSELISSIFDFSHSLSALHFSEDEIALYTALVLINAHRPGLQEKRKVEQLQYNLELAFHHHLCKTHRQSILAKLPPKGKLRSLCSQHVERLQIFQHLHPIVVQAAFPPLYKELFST
Outline: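 Percent inhibition was derived from luciferase RLU versus vehicle mean after 24 h compound incubation (37 °C, 0.1% DMSO). The cells were HEK293, transiently co-expressing a Gal4–RORγ ligand-binding-domain fusion plus a UAS-driven luciferase gene.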

[2] = system: IL-17A secretion in activated PBMCs; assay: IL-17A secretion in activated PBMCs; assay type: cell-based, human; conditions: for IC50: human PBMCs stimulated with CD3/CD28 Dynabeads for 48 h, absolute IC50
Protocol: Heparin-treated whole blood from healthy human volunteers was supplied from Hospital de Sant Pau (Barcelona) under the approval of the local ethical review board for human studies (Hospital de Sant Pau, Barcelona, Spain). Human peripheral blood mononuclear cells (PBMCs) were isolated from healthy human volunteers by density gradient centrifugation using the Ficoll-Paque (GE Healthcare). […] Cells were seeded in 384-well plate (DiscoverX), at 40,000 cells per well and cultured 2 h at 37° C. and 5% CO2.
Dose-response curves with compounds were prepared using a 5-fold serial dilution (10 concentrations) in 100% DMSO and further diluted 100-fold in culture medium. Compound solutions (5 μL) were added to the plate containing cells (final DMSO concentration of 0.1%) and incubated for 30 min. Then, cells were stimulated with CD3/CD28 Dynabeads (ThermoFisher, at a bead-to-cell ratio of 1:1) for 48 h at 37° C. and 5% CO2.
IL-17A levels in supernatant were determined by immunoassay using hIL17A QBeads (Intellicyt) and by fluorescence analysis in iQue flow cytometer following the manufacturer's instructions. Inhibition of IL-17A secretion was calculated using the following formula: inhibition=100*[1−[(x−mean basal condition)/(mean top condition−mean basal condition)]]. Activated DMSO-treated cells were used as top condition and activated GNE09461 (10 μM)-treated cells as basal condition.

[3] = HEK293 cells co-transfected with RORγ LBD-Gal4 and luciferase reporter, 24 h incubation, absolute EC50, read-out: EC50
[4] = compounds of the present disclosure, value from Table 2 herein, read-out: Gal4 assay EC50

EC50 [1, 3] | EC50 [1, 4] | Compound | IC50 ([2]; Homo sapiens, PBMC, 48 h) | IC50 [2] | inhibition at 10 µM ([2]; PBMC, @10 uM, human PBMCs stimulated with CD3/CD28 Dynabeads)
3.8 nM |  | NC(=O)CN1CC[C@@H](CNc2ncnc(N(Cc3ccc(C(O)(C(F)(F)F)C(F)(F)F)cc3)C3CC3)c2F)[C@H](O)C1 (single isomer, unassigned) [Example A7-54-1] | 9.8 nM |  | 
 | < 100 nM | NC(=O)CN1CC[C@H](CNc2ncnc(N(Cc3ccc(C(F)(F)F)nc3)C3CC3)c2F)[C@@H](O)C1 (single isomer, unassigned) [Example A7-28-2] | 81 nM |  | 
13 nM |  | Cn1cc(-c2ccc(CN(c3ncnc(NC[C@@H]4CCN(CC(N)=O)C[C@H]4O)c3F)C3CC3)c(F)c2)cn1 (racemic) [Example A7-75, rac-2-((3R,4R)-4-(((6-(cyclopropyl(2-fluoro-4-(1-methyl-1H-pyrazol-4-yl)benzyl)amino)-5-fluoropyrimidin-4-yl)amino)methyl)-3-hydroxypiperidin-1-yl)acetamide] | 18 nM |  | 
6.1 nM |  | NC(=O)C(c1ccncc1)N1CC[C@](O)(CNc2ncnc(N(Cc3ccc(C(F)(F)F)cc3)C3CC3)c2F)[C@@H](O)C1 (relative stereo) [Example D5-08, rel-2-((3R,4R)-4-(((6-(cyclopropyl(4-(trifluoromethyl)benzyl)amino)-5-fluoropyrimidin-4-yl)amino)methyl)-3,4-dihydroxypiperidin-1-yl)-2-(pyridin-4-yl)acetamide] | 2.7 nM |  | 
15 nM |  | NC(=O)CN1CC[C@@H](CNc2ncnc(N(Cc3ccc(C(F)(F)F)cn3)C3CC3)c2F)[C@H](O)C1 (racemic) [Example A7-14, rac-2-((3R,4R)-4-(((6-(cyclopropyl((5-(trifluoromethyl)pyridin-2-yl)methyl)amino)-5-fluoropyrimidin-4-yl)amino)methyl)-3-hydroxypiperidin-1-yl)acetamide] | 28 nM |  | 
12 nM |  | Cn1cc(-c2ccc(CN(c3ncnc(NC[C@@H]4CCN(CC(N)=O)C[C@H]4O)c3F)C3CC3)cc2)cn1 (racemic) [Example A7-74, rac-2-((3R,4R)-4-(((6-(cyclopropyl(4-(1-methyl-1H-pyrazol-4-yl)benzyl)amino)-5-fluoropyrimidin-4-yl)amino)methyl)-3-hydroxypiperidin-1-yl)acetamide] | 23 nM |  | 
1.8 nM |  | CCN(Cc1ccc(C(F)(F)F)cc1)c1ncnc(NC[C@@H]2CCN(C(C(N)=O)c3ccncc3)C[C@H]2O)c1F (mixture of isomers) [Example A7-62, rac-2-((3R,4R)-4-(((6-(Ethyl(4-(trifluoromethyl)benzyl)amino)-5-fluoropyrimidin-4-yl)amino)methyl)-3-hydroxypiperidin-1-yl)-2-(pyridin-4-yl)acetamide] | 7.2 nM |  | 
18 nM |  | NC(=O)CN1CC[C@@H](CNc2ncnc(N(Cc3ccc(OC(F)F)cc3F)C3CC3)c2F)[C@H](O)C1 (racemic) [Example A7-42, rac-2-((3R,4R)-4-(((6-(cyclopropyl(4-(difluoromethoxy)-2-fluorobenzyl)amino)-5-fluoropyrimidin-4-yl)amino)methyl)-3-hydroxypiperidin-1-yl)acetamide] | 200 nM |  | 
42 nM |  | NC(=O)CN1CC[C@@H](CNc2ncnc(N(Cc3ccc(C(F)(F)F)nc3)C3CC3)c2F)[C@H](O)C1 (single isomer, unassigned) [Example A7-28-1] | 62 nM |  | 
34 nM |  | NC(=O)CN1CC[C@@H](CNc2ncnc(N(Cc3ccc(C(F)(F)F)cc3)[C@H]3C[C@@H](F)C3)c2F)[C@H](O)C1 (racemic) [Example A7-32, rac-2-((3R,4R)-4-(((5-fluoro-6-(((1s,3R)-3-fluorocyclobutyl)(4-(trifluoromethyl)benzyl)amino)pyrimidin-4-yl)amino)methyl)-3-hydroxypiperidin-1-yl)acetamide] | 220 nM |  | 
8.1 nM |  | N#CC1(CNc2ncnc(N(Cc3ccc(C(F)(F)F)cc3)C3CC3)c2F)CCN(CC(N)=O)CC1 [Example A7-50, 2-(4-cyano-4-(((6-(cyclopropyl(4-(trifluoromethyl)benzyl)amino)-5-fluoropyrimidin-4-yl)amino)methyl)piperidin-1-yl)acetamide] | 40 nM |  | 
8.5 nM |  | CCN(Cc1ccc(C(F)(F)F)cc1F)c1ncnc(NC[C@H]2CCN(CC(N)=O)C[C@@H]2O)c1F (stereo in doubt) [Example A7-26-2, rel-2-((3R,4R)-4-(((6-(ethyl(2-fluoro-4-(trifluoromethyl)benzyl)amino)-5-fluoropyrimidin-4-yl)amino)methyl)-3-hydroxypiperidin-1-yl)acetamide] | 29 nM |  | 
72 nM | < 100 nM | NC(=O)CN1CCC(O)(CNc2ncnc(N(Cc3ccc(C(F)(F)F)nc3)C3CC3)c2F)CC1 [Example A7-11, 2-(4-(((6-(cyclopropyl((6-(trifluoromethyl)pyridin-3-yl)methyl)amino)-5-fluoropyrimidin-4-yl)amino)methyl)-4-hydroxypiperidin-1-yl)acetamide] | 200 nM |  | 
11 nM |  | NC(=O)CN1CC[C@@H](CNc2ncnc(N(Cc3ccc(OC(F)F)cc3)C3CC3)c2F)[C@H](O)C1 (racemic) [Example A7-43, rac-2-((3R,4R)-4-(((6-(cyclopropyl(4-(difluoromethoxy)benzyl)amino)-5-fluoropyrimidin-4-yl)amino)methyl)-3-hydroxypiperidin-1-yl)acetamide] | 35 nM |  | 
29 nM |  | Cn1cc(-c2ccc(CN(c3ncnc(NC[C@]4(O)CCN(CC(N)=O)C[C@H]4O)c3F)C3CC3)c(F)c2)cn1 (single isomer, unassigned) [Example D5-05-2] |  | 200 nM | 
46 nM | < 100 nM | NC(=O)CN1CCC(CO)(CNc2ncnc(N(Cc3ccc(C(F)(F)F)nc3)C3CC3)c2F)CC1 [Example A7-45, 2-(4-(((6-(cyclopropyl((6-(trifluoromethyl)pyridin-3-yl)methyl)amino)-5-fluoropyrimidin-4-yl)amino)methyl)-4-(hydroxymethyl)piperidin-1-yl)acetamide] | 80 nM |  | 
44 nM | < 100 nM | NC(=O)CN1CCC(O)(CNc2ncnc(N(Cc3ccc(C(F)(F)F)cn3)C3CC3)c2F)CC1 [Example A7-09, 2-(4-(((6-(cyclopropyl((5-(trifluoromethyl)pyridin-2-yl)methyl)amino)-5-fluoropyrimidin-4-yl)amino)methyl)-4-hydroxypiperidin-1-yl)acetamide] | 190 nM |  | 
65 nM |  | CCN(Cc1ccc(C#N)cc1)c1ncnc(NC[C@@H]2CCN(CC(N)=O)C[C@H]2O)c1F (racemic) [Example A7-78, rac-2-((3R,4R)-4-(((6-((4-cyanobenzyl)(ethyl)amino)-5-fluoropyrimidin-4-yl)amino)methyl)-3-hydroxypiperidin-1-yl)acetamide] |  |  | 70%
20.5 nM |  | NC(=O)CN1CC[C@@H](CNc2ncnc(N(Cc3ccc(C(F)(F)F)nc3)C3CC3)c2F)[C@H](O)C1 (racemic) [Example A7-28, rac-2-((3R,4R)-4-(((6-(cyclopropyl((6-(trifluoromethyl)pyridin-3-yl)methyl)amino)-5-fluoropyrimidin-4-yl)amino)methyl)-3-hydroxypiperidin-1-yl)acetamide] | 120 nM |  | 
5.5 nM |  | CC(F)(F)c1ccc(CN(c2ncnc(NC[C@@H]3CCN(CC(N)=O)C[C@H]3O)c2F)C2CC2)cc1 (racemic) [Example A7-40, rac-2-((3R,4R)-4-(((6-(cyclopropyl(4-(1,1-difluoroethyl)benzyl)amino)-5-fluoropyrimidin-4-yl)amino)methyl)-3-hydroxypiperidin-1-yl)acetamide] | 7.7 nM |  | 
2.7 nM |  | [2H]C([2H])(C(N)=O)N1CC[C@@H](CNc2ncnc(N(Cc3ccc(C(F)(F)F)cc3)C3CC3)c2F)[C@H](O)C1 (relative stereo) [Example A7-69, rel-2-((3R,4R)-4-(((6-(cyclopropyl(4-(trifluoromethyl)benzyl)amino)-5-fluoropyrimidin-4-yl)amino)methyl)-3-hydroxypiperidin-1-yl)acetamide-2,2-d2] | 3.1 nM |  | 

Compound | EC50 [1, 3] | EC50 [1, 4] | IC50 ([2]; Homo sapiens, PBMC, 48 h) | IC50 [2] | inhibition at 10 µM ([2]; PBMC, @10 uM, human PBMCs stimulated with CD3/CD28 Dynabeads)
NC(=O)CN1CCC(CNc2ncnc(N(Cc3ccc(C(F)(F)F)cc3)C3CC3)c2F)(c2nnco2)CC1 [Example A7-82, 2-(4-(((6-(Cyclopropyl(4-(trifluoromethyl)benzyl)amino)-5-fluoropyrimidin-4-yl)amino)methyl)-4-(1,3,4-oxadiazol-2-yl)piperidin-1-yl)acetamide] | 8.1 nM |  | 150 nM |  | 

Source: US12441704B2, “Compounds active towards nuclear receptors” (NUEVOLUTION A/S, priority 2019, dated 2025)
